EPA's ToxValDB 9.5
In brackets after ≈: the same amount, converted by molar mass. Several values for one entry are separate records, joined by “and”; a condition that tells them apart may be missing. Equal values may be shown once.

Experiments:
Canidae [1] = conditions: chronic; duration: 1 years; oral; diet; Dog Other; Blood: Cholinesterase inhibition + Testis: Effects + Uterus: Effects
Rattus norvegicus [2] = system: Rattus norvegicus
Oryctolagus sp. [3] = conditions: New Zealand
Rattus norvegicus [4] = assay: LD40; higher = less toxic; conditions: acute; oral; gavage; Sprague-Dawley
Canidae [5] = conditions: chronic; oral; diet; M/F; Dog Other; rbc and plasma cholinesterase inhibition, and testicular and uterine effects
Rattus norvegicus [6] = conditions: for LEL: uterotrophic, Active
Oryctolagus sp. [7] = conditions: reproduction developmental; duration: 13 days; oral; gavage; Reproduction: Loss of litters
Oryctolagus sp. [8] = conditions: developmental; oral; F; excessive loss of litters
Rattus norvegicus [9] = system: Rattus norvegicus; remark: listed apart in the source
Mus musculus [10] = conditions: uterotrophic, Active
Rattus norvegicus [11] = conditions: repeat dose other; oral
Monkey [12] = conditions: chronic; duration: 6 months; oral; diet; Thyroid: Increased weight
Monkey [13] = conditions: chronic; duration: 6 months; oral; diet; M/F; increased thyroid weight
Oryctolagus sp. [14] = assay: LD0; higher = less toxic; conditions: acute; dermal; New Zealand
Rattus norvegicus [15] = conditions: chronic; duration: 2 years; oral; drinking water; Gastrointestinal tract: Lesions
Rattus norvegicus [16] = conditions: oral; for NOEL: subchronic, gavage, Fischer 344, Deaths + Body Weight Changes: decrease + Hematology: Hct increase, RBC increase, WBC increase, Hgb increase, Ret increase, Nucleated …
Rattus norvegicus [17] = conditions: M/F
Homo sapiens [18] = conditions: clinical; for LOAEL: inhalation, M/F, respiratory
Monkey [19] = conditions: chronic; duration: 26 weeks; inhalation; M; Cynomolgus; respiratory
Canidae [20] = conditions: repeat dose other; oral; Dog Other
Rattus norvegicus [21] = assay: FEL; higher = less toxic; conditions: M/F
Homo sapiens [22] = conditions: clinical, oral
Gallus sp. = conditions: repeat dose other; oral
Homo sapiens [23] = conditions: clinical; oral; Cholinesterase: Decreased cholinesterase activity
Canidae [24] = conditions: subchronic; duration: 13 weeks; oral; capsule; M/F; Beagle; neurological
Mus musculus [25] = conditions: chronic; duration: 25 months; oral; diet; M/F; Swiss; Histopathology in lungs
[26] = acute, oral, gavage, Sprague-Dawley
[27] = chronic, duration: 2 years, oral, reduced weight gain, histopathology: rats
[28] = chronic, oral, gavage, reduced survival

## CNC(=O)Oc1cccc2c1OC(C)(C)C2 [Carbofuran]
Canidae [1]
  NOEL: 0.5 mg/kg-day
Rattus norvegicus [2]; acute, inhalation, particle, Sprague-Dawley
  LC50: 0.05 µg/mL (≈ 0.226 µM)
Rattus norvegicus [2]; acute, oral, diet, Sprague-Dawley
  LD50: 5.3 mg/kg and 13.2 mg/kg
Rattus norvegicus [2]; [26]
  LD50: 7 mg/kg and 8.8 mg/kg and 13.3 mg/kg
Rattus norvegicus [2]; developmental, duration: 14 days, oral, diet, Sprague-Dawley
  NOAEL: 160 ppm
Rattus norvegicus [2]; reproduction developmental, duration: 14 days, oral, diet, F, Sprague-Dawley
  NOAEL: 20 ppm
Rattus norvegicus [2]; reproduction developmental, oral, diet, Crl:CD(SD)
  NOAEL: 20 ppm
Oryctolagus sp. [3]; acute, dermal, semiocclusive
  LD50: < 2000 mg/kg
Oryctolagus sp. [3]; reproduction developmental, oral, gavage, F
  NOAEL: ≥ 2 mg/kg-day
Rattus norvegicus [4]
  LD40: 5.6 mg/kg
Canidae [5]
  LEL: 12.5 mg/kg-day
  NOEL: 0.5 mg/kg-day
Rattus norvegicus [6]; Hershberger, duration: 10 days, oral, gavage, Sprague-Dawley, inactive + Negative + Negative + neither + negative
  NOEL: 0.3 mg/kg-day

## COc1ccc(C(c2ccc(OC)cc2)C(Cl)(Cl)Cl)cc1 [Methoxychlor]
Oryctolagus sp. [7]
  NOEL: 5.01 mg/kg-day
Oryctolagus sp. [8]
  LEL: 35.5 mg/kg-day
  NOEL: 5.01 mg/kg-day
Rattus norvegicus [9]; reproduction developmental, duration: 364 days, oral, gavage, M/F, Sprague-Dawley, reproductive
  LOAEL: 5 mg/kg-day
Rattus norvegicus [6]; duration: 1 days, injection, intraperitoneal
  LEL: 10 mg and 5 mg/day
Rattus norvegicus [6]; duration: 1 days, oral
  LEL: 125 mg/kg-day
Rattus norvegicus [6]; duration: 4 days, injection, intraperitoneal
  LEL: 0.75 mg/kg-day
Rattus norvegicus [6]; duration: 7 days, injection, subcutaneous
  LEL: 100 mg/kg-day
Rattus norvegicus [6]; duration: 7 days, oral
  LEL: 50 mg/kg-day
Rattus norvegicus [6]; duration: 42 days, oral, diet
  LEL: 500 ppm
Rattus norvegicus [6]; duration: 98 days, oral, diet
  LEL: 1500 ppm
Mus musculus [10]; duration: 3 days, oral
  LEL: 1 mg/day
Mus musculus [10]; duration: 4 days, injection, subcutaneous
  LEL: 100 mg/kg-day
Mus musculus [10]; duration: 5 days, injection, subcutaneous
  LEL: 10 mg/kg-day
Rattus norvegicus [11]
  LOAEL: 8 mg/kg-day
  NOAEL: 4 mg/kg-day

## S=C([S-])NCCNC(=S)[S-].[Mn+2] [Maneb]
Monkey [12]
  NOEL: 5 mg/kg-day
Monkey [13]
  LEL: 15 mg/kg-day
  NOEL: 5 mg/kg-day

## CC12C=CC(C1)C1C(=O)OC(=O)C12 (stereo not given) [1,2,3,6-Tetrahydromethyl-3,6-methanophthalic anhydride]
Rattus norvegicus [2]; acute, dermal
  LD50: 4920 mg/kg and ≥ 3670 mg/kg and ≤ 6590 mg/kg
Rattus norvegicus [2]; acute, oral
  LD50: 914 mg/kg
Rattus norvegicus [2]; [26]
  LD50: 958 mg/kg and ≥ 856 mg/kg and ≤ 1080 mg/kg
Oryctolagus sp. [14]
  LD0: > 2000 mg/kg

## C=O [Formaldehyde]
Rattus norvegicus [15]
  NOAEL: 15 mg/kg-day
Rattus norvegicus [16]; short-term, duration: 28 days, drinking water, M/F, Wistar, Clinical Observation: Yellowish discoloration of fur + Food Consumption: decrease + Water Consumption: decrease + Blood Chemistry: TP …
  NOAEL: 25 mg/kg-day
Rattus norvegicus [17]; [27]
  LOAEL: 82 mg/kg-day
  NOAEL: 15 mg/kg-day
Homo sapiens [18]; duration: 2 hours
  LOAEL: 0.491 mg/m3
Rattus norvegicus [9]; chronic, duration: 2 years, oral, M/F, Wistar, gastrointestinal
  NOAEL: 15 mg/kg-day
Rattus norvegicus [9]; short-term, duration: 4 weeks, oral, drinking water, M/F, Wistar, gastrointestinal
  NOAEL: 25 mg/kg-day
Monkey [19]
  NOAEL: 1.2 mg/m3
Canidae [20]
  NOAEL: 9.4 mg/kg-day

## C=CC=O [Acrolein]
Rattus norvegicus [21]; [28]
  FEL: 0.5 mg/kg-day
Rattus norvegicus [16]; F
  NOEL: < 0.75 mg/kg-day
Rattus norvegicus [16]; M
  NOEL: 1.25 mg/kg-day
Rattus norvegicus [17]; [28]
  NOAEL: 0.05 mg/kg-day
Rattus norvegicus [17]; subchronic, inhalation, nasal lesions
  LOAEL: 0.9 mg/m3
Homo sapiens [18]; duration: 60 minutes
  LOAEL: 0.688 mg/m3
Rattus norvegicus [9]; subchronic, duration: 13 weeks, inhalation, M/F, respiratory
  LOAEL: 0.917 mg/m3

## CN(C)[C@@H]1C(=O)C(C(N)=O)=C(O)[C@@]2(O)C(=O)C3=C(O)c4c(O)cccc4[C@@](C)(O)[C@H]3[C@H](O)[C@@H]12 [Oxytetracycline]
Homo sapiens [22]; Selection of resistant enterobacteriaceae
  NOEL: 0.033 mg/kg-day

## Clc1cc2oc3cc(Cl)c(Cl)cc3c2cc1Cl [2,3,7,8-Tetrachlorodibenzofuran]
Gallus sp.
  LOAEL: 1e-05 mg/kg-day
  NOAEL: 1e-06 mg/kg-day

## CCN(CC)CC [Triethylamine]
Rattus norvegicus [21]; short-term, duration: 10 days, inhalation, inflammation of the nasal passage
  FEL: 4140 mg/m3
Rattus norvegicus [17]; chronic, duration: 28 weeks, inhalation, no effects
  NOAEL: 1020 mg/m3

## CCOP(=S)(OCC)Oc1ccc([N+](=O)[O-])cc1 [Parathion]
Homo sapiens [23]
  NOAEL: 0.064 mg/kg-day
Homo sapiens [18]; duration: 30 days, oral, capsule, M, neurological
  NOAEL: 0.09 mg/kg-day
Rattus norvegicus [9]; subchronic, duration: 6 weeks, inhalation, whole body, M, Sprague-Dawley, neurological
  NOAEL: 0.01 mg/m3

## C=C1C(CCl)(CCl)C2(Cl)C(Cl)C(Cl)C1(Cl)C2(Cl)Cl (stereo not given) [Toxaphene]
Canidae [24]
  NOAEL: 5 mg/kg-day
Rattus norvegicus [11]
  NOAEL: 8 mg/kg-day

## N#CC(c1ccc(Cl)cc1)c1c(Cl)cc(-n2ncc(=O)[nH]c2=O)cc1Cl (stereo not given) [Diclazuril]
Mus musculus [25]
  LOEL: 11 mg/kg-day
  NOEL: 3 mg/kg-day

## CC1(C)[C@@H](O[C@H]2O[C@H](C(=O)O)[C@@H](O)[C@H](O)[C@H]2O[C@@H]2O[C@H](C(=O)O)[C@@H](O)[C@H](O)[C@H]2O)CC[C@]2(C)[C@H]3C(=O)C=C4[C@@H]5C[C@@](C)(C(=O)O)CC[C@]5(C)CC[C@@]4(C)[C@]3(C)CC[C@@H]12 [Glycyrrhizin]
Homo sapiens [22]; duration: 8 weeks, capsule, F, Inhibition of the type-2 11b-hsd, with a consequent increase in concentrations of cortisol
  NOAEL: 2 mg/kg-day
